Each structure is given as a SMILES string.

In the first assay the test system is TCG codon, mammalian cells. The assay can be described thus: TCG codon recoding efficiency of all amino acids (Table 1). The format is cell-based. The conditions noted are these: TCG codon recoding of the unnatural amino acid with the aaRS and mutation of the same table line; class symbols. The source says: Specific details are shown in Table 1 below, where “wt” represents the wild-type aminoacyl-tRNA synthetase, “mutation sites” indicate the positions and types of mutations related to specific unnatural amino acid binding on the wild-type aminoacyl-tRNA synthetase, and “unnatural amino acid” represents the unnatural amino acid corresponding to the mutated aminoacyl-tRNA synthetase. In the unnatural amino acid encoding efficiency, “+” indicates a recoding efficiency greater than 40%, “++” greater than 60%, and “+++” greater than 80%.
Accordingly, this application compiles all amino acids reported in the literature that are recognized by orthogonal aminoacyl-tRNA synthetases in mammalian systems and evaluates their recoding efficiency using the TCG codon as an example.
For the compound `CC#CCOc1ccc(C[C@H](N)C(=O)O)cc1` [compound 239], the “Recoding rate (%)” value is recorded as “++ (“++” greater than 60%)”.

In the case of `C=CCSC[C@H](N)C(=O)O` [compound 280], the “Recoding rate (%)” value was “+ (“+” indicates a recoding efficiency greater than 40%)”.

Regarding `CN(C)c1cccc(C[C@H](N)C(=O)O)c1` [compound 288], the “Recoding rate (%)” value is recorded as “+++ (“+++” greater than 80%)”.

For the compound `N[C@@H](Cc1cn(Cc2ccccc2[N+](=O)[O-])cn1)C(=O)O` [compound 254], the “Recoding rate (%)” value is on record as “++ (“++” greater than 60%)”.

As to `N[C@@H](Cc1ccc(C#CCCC2CCCC2)cc1)C(=O)O` [compound 304], the “Recoding rate (%)” value is given as “++ (“++” greater than 60%)”.

For the compound `C=CCCCOc1ccc(C[C@H](N)C(=O)O)cc1` [compound 243], the “Recoding rate (%)” value is recorded as “++ (“++” greater than 60%)”.

As to `N[C@@H](Cc1ccc(C=CCCc2ccc3ccccc3c2)cc1)C(=O)O` [compound 321], the “Recoding rate (%)” value is recorded as “++ (“++” greater than 60%)”.

For the compound `C=CCCC(=O)Nc1ccc(C[C@H](N)C(=O)O)cc1` [compound 353], the “Recoding rate (%)” value was “+++ (“+++” greater than 80%)”.

With `N[C@@H](Cc1ccc2ncccc2c1)C(=O)O` [compound 230], the “Recoding rate (%)” value is listed as “+ (“+” indicates a recoding efficiency greater than 40%)”.

Take `N[C@@H](Cc1ccc(C(=O)c2cccc(F)c2)cc1)C(=O)O` [compound 340]: the “Recoding rate (%)” value is given as “++ (“++” greater than 60%)”.

In the case of `N[C@@H](Cc1ccc2ccccc2c1)C(=O)O` [compound 249], the “Recoding rate (%)” value is on record as “+ (“+” indicates a recoding efficiency greater than 40%)”.

Take `C=CCC(=O)Nc1ccc(C[C@H](N)C(=O)O)cc1` [compound 354]: the “Recoding rate (%)” value was “+++ (“+++” greater than 80%)”.

Take `CN(C)c1ccc(-c2oc(N)nc2C(=O)O)cc1` [compound 279]: the “Recoding rate (%)” value is “++ (“++” greater than 60%)”.

Turning to `N[C@@H](Cc1ccc(C(=O)c2ccc(C(F)(F)F)cc2)cc1)C(=O)O` [compound 345], the “Recoding rate (%)” value was “++ (“++” greater than 60%)”.

Regarding `C#CCn1cc(C[C@H](N)C(=O)O)c2ccccc21` [compound 326], the “Recoding rate (%)” value is on record as “++ (“++” greater than 60%)”.

Consider `C=CCCOc1ccc(C[C@H](N)C(=O)O)cc1` [compound 242], for which the “Recoding rate (%)” value is given as “++ (“++” greater than 60%)”.

On to `[N-]=[N+]=NCCC(=O)Nc1ccc(C[C@H](N)C(=O)O)cc1` [compound 350], for which the “Recoding rate (%)” value is on record as “+++ (“+++” greater than 80%)”.

As to `CCCCC=Cc1ccc(C[C@H](N)C(=O)O)cc1` [compound 315], the “Recoding rate (%)” value was “+++ (“+++” greater than 80%)”.

In the case of `[N-]=[N+]=NCCOc1ccc(C[C@H](N)C(=O)O)cc1` [compound 348], the “Recoding rate (%)” value was “++ (“++” greater than 60%)”.

For the compound `N[C@@H](Cc1ccc(NC(=O)CCl)cc1)C(=O)O` [compound 356], the “Recoding rate (%)” value is given as “+++ (“+++” greater than 80%)”.

Take `N[C@@H](Cc1ccc(OCCCl)cc1)C(=O)O` [compound 364]: the “Recoding rate (%)” value is listed as “++ (“++” greater than 60%)”.

`N[C@@H](CC(=O)SCCNC(=O)OC1CCCC1)C(=O)O` [compound 267]: the “Recoding rate (%)” value is “++ (“++” greater than 60%)”.

With `N[C@@H](CNc1ccc2ccccc2c1)C(=O)O` [compound 392], the “Recoding rate (%)” value is recorded as “++ (“++” greater than 60%)”.

Turning to `[N-]=[N+]=NCCCSC[C@H](N)C(=O)O` [compound 387], the “Recoding rate (%)” value was “++ (“++” greater than 60%)”.

For the compound `N[C@@H](Cc1ccc(C(=O)CF)cc1)C(=O)O` [compound 338], the “Recoding rate (%)” value is on record as “++ (“++” greater than 60%)”.

In the case of `N[C@@H](Cc1ccc(C#CCCCCCBr)cc1)C(=O)O` [compound 317], the “Recoding rate (%)” value is “+ (“+” indicates a recoding efficiency greater than 40%)”.

For the compound `CCSCCCC[C@H](N)C(=O)O` [compound 393], the “Recoding rate (%)” value was “++ (“++” greater than 60%)”.

Take `N[C@@H](CCCCS)C(=O)O` [compound 395]: the “Recoding rate (%)” value was “++ (“++” greater than 60%)”.

For `N[C@@H](Cc1ccc(Oc2ccc(O)cc2)cc1)C(=O)O` [compound 231], the “Recoding rate (%)” value is “++ (“++” greater than 60%)”.

As to `C=CC[Se]C[C@H](N)C(=O)O` [compound 272], the “Recoding rate (%)” value is reported as “+ (“+” indicates a recoding efficiency greater than 40%)”.

Take `Nc1ccc2[nH]cc(C[C@H](N)C(=O)O)c2c1` [compound 417]: the “Recoding rate (%)” value is “+ (“+” indicates a recoding efficiency greater than 40%)”.

In the case of `N[C@@H](Cc1ccc(C#CCCCc2ccccc2)cc1)C(=O)O` [compound 320], the “Recoding rate (%)” value is “++ (“++” greater than 60%)”.

As for `CCCCCC[C@H](N)C(=O)O` [compound 376], the “Recoding rate (%)” value is given as “++ (“++” greater than 60%)”.

The same assay, now with this note: TCG codon recoding of the unnatural amino acid with the aaRS and mutation of the same table line; numeric values.
`N[C@@H](Cc1ccc(I)cc1)C(=O)O` [compound 370]: the “Recoding rate (%)” value is listed as 64%.

Consider `N[C@@H](Cc1cc(Br)ccc1Cl)C(=O)O` [compound 245], for which the “Recoding rate (%)” value stood at 75%.

For the compound `N[C@@H](Cc1ccc(OS(=O)(=O)F)cc1)C(=O)O` [compound 373], the “Recoding rate (%)” value was 68%.

As to `N[C@@H](Cc1ccc(C(=O)c2ccccc2)cc1)C(=O)O` [compound 346], the “Recoding rate (%)” value was determined as 74%.

For the compound `N[C@@H](Cc1cc(Cl)ccc1Cl)C(=O)O` [compound 246], the “Recoding rate (%)” value stood at 84%.

On to `CCCCCCCSC[C@H](N)C(=O)O` [compound 383], for which the “Recoding rate (%)” value is 74%.

For the compound `COc1ccc(C[C@H](N)C(=O)O)cc1` [compound 365], the “Recoding rate (%)” value stood at 89%.

Regarding `N[C@@H](Cc1ccc(OCCBr)cc1)C(=O)O` [compound 337], the “Recoding rate (%)” value was 60%.

As to `N#Cc1ccc(C[C@H](N)C(=O)O)cc1` [compound 330], the “Recoding rate (%)” value was 45%.

In the case of `N[C@@H](Cc1ccc(Br)cc1)C(=O)O` [compound 366], the “Recoding rate (%)” value was 63%.

Take `CC(=O)c1ccc(C[C@H](N)C(=O)O)cc1` [compound 359]: the “Recoding rate (%)” value is reported as 78%.

Consider `N[C@@H](Cc1cncs1)C(=O)O` [compound 257], for which the “Recoding rate (%)” value was 91%.

In the case of `N[C@@H](Cc1c[nH]c2ccc(O)cc12)C(=O)O` [compound 411], the “Recoding rate (%)” value is 75%.

On to `N[C@@H](Cc1ccc(I)cc1)C(=O)O` [compound 297], for which the “Recoding rate (%)” value is 43%.

Take `N[C@@H](Cc1c[nH]c2c(F)cccc12)C(=O)O` [compound 250]: the “Recoding rate (%)” value is given as 74%.

Consider `N[C@@H](Cc1cc(F)c(F)cc1F)C(=O)O` [compound 229], for which the “Recoding rate (%)” value was found to be 83%.

Consider `N#Cc1cccc(C[C@H](N)C(=O)O)c1` [compound 306], for which the “Recoding rate (%)” value is given as 75%.

For the compound `C#CCOc1ccc(C[C@H](N)C(=O)O)cc1` [compound 363], the “Recoding rate (%)” value was 78%.

For `N[C@@H](Cc1c[nH]c2cc(Cl)ccc12)C(=O)O` [compound 291], the “Recoding rate (%)” value amounted to 73%.

Turning to `COc1ccc(C[C@H](N)C(=O)O)cc1` [compound 308], the “Recoding rate (%)” value is listed as 68%.

For the compound `CC(=O)c1ccc(C[C@H](N)C(=O)O)cc1` [compound 305], the “Recoding rate (%)” value worked out at 92%.

Take `N[C@@H](Cc1ccc(O)c(O)c1)C(=O)O` [compound 323]: the “Recoding rate (%)” value is listed as 48%.

`N[C@@H](Cc1csc2ccccc12)C(=O)O` [compound 252]: the “Recoding rate (%)” value came to 89%.

On to `CCCCCC[C@H](N)C(=O)O` [compound 396], for which the “Recoding rate (%)” value came to 88%.

For the compound `N[C@@H](Cc1cccs1)C(=O)O` [compound 258], the “Recoding rate (%)” value was 72%.

As to `N[C@@H](Cc1ccc(OS(=O)(=O)O)cc1)C(=O)O` [compound 335], the “Recoding rate (%)” value turned out to be 85%.

As to `N[C@@H](Cc1c[nH]c2cccc(F)c12)C(=O)O` [compound 418], the “Recoding rate (%)” value came out at 82%.

On to `CCCCCCCC[C@H](N)C(=O)O` [compound 398], for which the “Recoding rate (%)” value is on record as 85%.

Consider `CC(=O)N(C)CCCC[C@H](N)C(=O)O` [compound 410], for which the “Recoding rate (%)” value worked out at 83%.

`CCOc1cc(CSC[C@H](N)C(=O)O)c([N+](=O)[O-])cc1OCC` [compound 403]: the “Recoding rate (%)” value came out at 84%.

For `CN(C)c1cccc2c(S(=O)(=O)NC[C@H](N)C(=O)O)cccc12` [compound 390], the “Recoding rate (%)” value worked out at 73%.

For the compound `N[C@@H](Cc1cccnc1)C(=O)O` [compound 247], the “Recoding rate (%)” value came to 83%.

Regarding `[N-]=[N+]=NCC(=O)Nc1ccc(C[C@H](N)C(=O)O)cc1` [compound 349], the “Recoding rate (%)” value was 84%.

Turning to `N[C@@H](Cc1cccc([N+](=O)[O-])c1)C(=O)O` [compound 237], the “Recoding rate (%)” value was found to be 85%.

Take `N[C@@H](Cc1ccc2c(c1)C(=O)C1C=CC=CC1N2)C(=O)O` (stereo partly shown) [compound 277]: the “Recoding rate (%)” value was 63%.

In the case of `N[C@@H](Cc1cccc(I)c1)C(=O)O` [compound 286], the “Recoding rate (%)” value amounted to 61%.

Regarding `N[C@@H](Cc1ccc(Br)s1)C(=O)O` [compound 259], the “Recoding rate (%)” value turned out to be 87%.

Regarding `CCCSC(=O)CCC(=O)NCCCC[C@H](N)C(=O)O` [compound 283], the “Recoding rate (%)” value was 55%.

Turning to `C=CCCCC[C@H](N)C(=O)O` [compound 407], the “Recoding rate (%)” value is 81%.

With `CCCCCCSC[C@H](N)C(=O)O` [compound 382], the “Recoding rate (%)” value is listed as 87%.

For `CCCCCSC[C@H](N)C(=O)O` [compound 381], the “Recoding rate (%)” value is 83%.

Regarding `N[C@@H](Cc1ccccc1[N+](=O)[O-])C(=O)O` [compound 232], the “Recoding rate (%)” value stood at 72%.

With `N[C@@H](Cc1ccc(OCc2ccccc2)cc1)C(=O)O` [compound 240], the “Recoding rate (%)” value stood at 46%.

The record behind these values is patent US20250327074A1 (SHAOXING INSTITUTE, ZHEJIANG UNIVERSITY, priority 2024, published 2025).
